One experiment concerns AR / CBP ternary complex. The experiment in a line: Ternary complex formation assay (sandwich ELISA, AR capture / CBP detection) in VCaP cell lysates. The experiment is classed as cell-based. Particulars: 1.5 hours treatment, sandwich ELISA (AR capture, CBP or p300 detection). In a few lines: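 VCaP cells (50K/well, 5% charcoal-stripped FBS, ≥3 days) treated with bifunctional compound for 1.5 h, then lysed 30 min at 4 °C. AR captured on anti-AR (AR 441) plates; bound CBP or p300 detected by rabbit mAb plus HRP secondary. QuantaRed chemifluorescence read at ex 570/em 585, immediately and at 5 and 15 min.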

A further experiment concerns VCaP cells. In words: VCaP growth inhibition assay. Particulars: 30 pM R1881, 9 days, CTG. Format: cell-based. The gist of the method: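 VCaP cells in phenol red-free DMEM/5% CSS, pre-incubated 72 h, then stimulated with R1881 (final 30 pM) and treated with 1:5 serial dilutions (final 100 nM to 10 fM) for 9 days at 37 °C. Viability by CellTiter-Glo luminescence; IC50 from 4-parameter logistic fit of RLU vs concentration.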

pEC50, pIC50: −log10 of the molar value. Bounds are passed on as bounds.

Consider `CC(=O)N1CCc2c(c(N3CCCc4cc(-c5cnn(C)c5)c(C)cc43)nn2C2CCN(CC3CCN(c4ncc(C(=O)NC5C(C)(C)C(Oc6ccc(C#N)c(C)c6C)C5(C)C)cn4)CC3(C)C)CC2)C1` (stereo not shown) [Compound 465, 2-[4-[[4-[5-acetyl-3-[7-methyl-6-(1-methylpyrazol-4-yl)-3,4-dihydro-2H-quinolin-1-yl]-6,7-dihydro-4H-pyrazolo[4,3-c]pyridin-1-yl]-1-piperidyl]methyl]-3,3-dimethyl-1-piperidyl]-N-[3-(4-cyano-2,3-dimethyl-phenoxy)-2,2,4,4-tetramethyl-cyclobutyl]pyrimidine-5-carboxamide], for which, in the experiment on AR / CBP ternary complex, the negative-log EC50 (pEC50) is over 9.00. This compound also showed a pIC50 with VCaP cells of 9.00 to 10.00.
The corresponding values for `COc1cc(OC2C(C)(C)C(NC(=O)c3ccc(N4CCC(C(=O)N5CCC(n6nc(N7CCCc8cc(-c9cnn(C)c9)c(C(F)F)cc87)c7c6CCN(C(C)=O)C7)CC5)CC4)cc3)C2(C)C)ccc1C#N` (stereo not shown) [Compound 252, 4-[4-[4-[5-acetyl-3-[7-(difluoromethyl)-6-(1-methylpyrazol-4-yl)-3,4-dihydro-2H-quinolin-1-yl]-6,7-dihydro-4H-pyrazolo[4,3-c]pyridin-1-yl]piperidine-1-carbonyl]-1-piperidyl]-N-[3-(4-cyano-3-methoxy-phenoxy)-2,2,4,4-tetramethyl-cyclobutyl]benzamide] are over 9.00 and 9.00 to 10.00.
The corresponding values for `CC(=O)N1CCc2c(c(N3CCCc4cc(-c5cnn(C)c5)c(C(F)F)cc43)nn2C2CCN(C3CC4(C3)CN(c3ncc(C(=O)NC5C(C)(C)C(Oc6ccc(C#N)c(Cl)c6)C5(C)C)cn3)C4)CC2)C1` (stereo not shown) [Compound 348, 2-[6-[4-[5-acetyl-3-[7-(difluoromethyl)-6-(1-methylpyrazol-4-yl)-3,4-dihydro-2H-quinolin-1-yl]-6,7-dihydro-4H-pyrazolo[4,3-c]pyridin-1-yl]-1-piperidyl]-2-azaspiro [3.3]heptan-2-yl]-N-[3-(3-chloro-4-cyano-phenoxy)-2,2,4,4-tetramethyl-cyclobutyl]pyrimidine-5-carboxamide] are over 9.00 and at least 10.00.
In the experiment with AR / CBP ternary complex, `CC(=O)N1CCc2c(c(N3CCCc4cc(-c5ccn(C)n5)c(C(F)F)cc43)nn2C2CCN(CC3CCC(n4cc(C(=O)NC5C(C)(C)C(Oc6ccc(C#N)c(Cl)c6)C5(C)C)cn4)CC3)CC2)C1` (stereo not shown) [Compound 241, 1-[4-[[4-[5-acetyl-3-[7-(difluoromethyl)-6-(1-methylpyrazol-3-yl)-3,4-dihydro-2H-quinolin-1-yl]-6,7-dihydro-4H-pyrazolo[4,3-c]pyridin-1-yl]-1-piperidyl]methyl]cyclohexyl]-N-[3-(3-chloro-4-cyano-phenoxy)-2,2,4,4-tetramethyl-cyclobutyl]pyrazole-4-carboxamide] showed a pEC50 of 8.00 to 9.00. In addition, the pIC50 with VCaP cells was 9.00 to 10.00.
`CC(=O)N1CCc2c(c(Nc3ccc(-c4cnn(C)c4)cc3F)nn2C2CN(CCC3CCN(c4ncc(C(=O)NC5C(C)(C)C(Oc6ccc(C#N)c(Cl)c6)C5(C)C)cn4)CC3)C2)C1` (stereo not shown) [Compound 3, 2-[4-[2-[3-[5-acetyl-3-[2-fluoro-4-(1-methylpyrazol-4-yl)anilino]-6,7-dihydro-4H-pyrazolo[4,3-c]pyridin-1-yl]azetidin-1-yl]ethyl]-1-piperidyl]-N-[3-(3-chloro-4-cyano-phenoxy)-2,2,4,4-tetramethyl-cyclobutyl]pyrimidine-5-carboxamide]: the pEC50 in the experiment on AR / CBP ternary complex was under 7.00. The negative logarithm of the IC50 (pIC50) in the experiment on VCaP cells is under 7.00.
Take `CC(=O)N1CCc2c(c(N3CCCc4cc(-c5cnn(C)c5)c(C(F)F)cc43)nn2C2CCC(CN3CCN(c4ncc(C(=O)NC5C(C)(C)C(Oc6ccc(C#N)c(Cl)c6)C5(C)C)cn4)CC3)CC2)C1` (stereo not shown) [Compound 318, 2-[4-[[4-[5-acetyl-3-[7-(difluoromethyl)-6-(1-methylpyrazol-4-yl)-3,4-dihydro-2H-quinolin-1-yl]-6,7-dihydro-4H-pyrazolo[4,3-c]pyridin-1-yl]cyclohexyl]methyl]piperazin-1-yl]-N-[3-(3-chloro-4-cyano-phenoxy)-2,2,4,4-tetramethyl-cyclobutyl]pyrimidine-5-carboxamide]: the pEC50 with AR / CBP ternary complex is over 9.00. In the experiment on VCaP cells, this compound had a pIC50 of at least 10.00.
The like results for `Cn1c(=O)n(C)c2cc(-c3cccc4cc(-c5ccc(CCC6CCN(c7ncc(C(=O)NC8C(C)(C)C(Oc9ccc(C#N)c(Cl)c9)C8(C)C)cn7)CC6)nc5)ncc34)ccc21` (stereo not shown) [Compound 232, N-[3-(3-chloro-4-cyano-phenoxy)-2,2,4,4-tetramethyl-cyclobutyl]-2-[4-[2-[5-[8-(1,3-dimethyl-2-oxo-benzimidazol-5-yl)-3-isoquinolyl]-2-pyridyl]ethyl]-1-piperidyl]pyrimidine-5-carboxamide] were, in that order, 7.00 to 8.00 and under 7.00.
The like results for `Cn1c(=O)sc2ccc(-c3cccc4cc(-c5ccc(CCC6CCN(c7ncc(C(=O)NC8C(C)(C)C(Oc9ccc(C#N)c(Cl)c9)C8(C)C)cn7)CC6)nc5)ncc34)cc21` (stereo not shown) [Compound 235, N-[3-(3-chloro-4-cyano-phenoxy)-2,2,4,4-tetramethyl-cyclobutyl]-2-[4-[2-[5-[8-(3-methyl-2-oxo-1,3-benzothiazol-5-yl)-3-isoquinolyl]-2-pyridyl]ethyl]-1-piperidyl]pyrimidine-5-carboxamide] were, in that order, over 9.00 and under 7.00.
Regarding `COc1cc(OC2C(C)(C)C(NC(=O)c3ccc(N4CCN(C5CCN(c6ccc(-c7cc8c(cc7C(F)F)N(c7nn(C9CCOCC9)c9c7CN(C(C)=O)CC9)CCC8)cn6)CC5)CC4)cc3)C2(C)C)ccc1C#N` (stereo not shown) [Compound 325, 4-[4-[1-[5-[1-(5-acetyl-1-tetrahydropyran-4-yl-6,7-dihydro-4H-pyrazolo[4,3-c]pyridin-3-yl)-7-(difluoromethyl)-3,4-dihydro-2H-quinolin-6-yl]-2-pyridyl]-4-piperidyl]piperazin-1-yl]-N-[3-(4-cyano-3-methoxy-phenoxy)-2,2,4,4-tetramethyl-cyclobutyl]benzamide], in the experiment on AR / CBP ternary complex, the negative-log EC50 (pEC50) is over 9.00. Besides, the pIC50 in the experiment on VCaP cells was 9.00 to 10.00.
The like results for `CC(=O)N1CCc2c(c(-c3cccc4cc(-c5cnn(C6CCN(C7CCN(c8ncc(C(=O)NC9C(C)(C)C(Oc%10ccc(C#N)c(Cl)c%10)C9(C)C)cn8)CC7)C6)c5)ncc34)nn2C2CCOCC2)C1` (stereo not shown) [Compound 222, 2-[4-[3-[4-[8-(5-acetyl-1-tetrahydropyran-4-yl-6,7-dihydro-4H-pyrazolo[4,3-c]pyridin-3-yl)-3-isoquinolyl]pyrazol-1-yl]pyrrolidin-1-yl]-1-piperidyl]-N-[3-(3-chloro-4-cyano-phenoxy)-2,2,4,4-tetramethyl-cyclobutyl]pyrimidine-5-carboxamide] were, in that order, over 9.00 and 9.00 to 10.00.
`C[C@@H]1CC(=O)Nc2cccc(-c3ccc4c(c3)c(-c3cnn(C)c3)nn4CCCN3CCN(c4ncc(C(=O)NC5C(C)(C)C(Oc6ccc(C#N)c(Cl)c6)C5(C)C)cn4)CC3)c2N1` (stereo partly drawn) [Compound 55, N-[3-(3-chloro-4-cyano-phenoxy)-2,2,4,4-tetramethyl-cyclobutyl]-2-[4-[3-[5-[(4R)-4-methyl-2-oxo-1,3,4,5-tetrahydro-1,5-benzodiazepin-6-yl]-3-(1-methylpyrazol-4-yl)indazol-1-yl]propyl]piperazin-1-yl]pyrimidine-5-carboxamide] showed a pEC50 in the experiment on AR / CBP ternary complex of under 7.00. The compound further had a pIC50 in the experiment with VCaP cells of under 7.00.
On to `COc1cc(OC2C(C)(C)C(NC(=O)c3ccc(C#CC4CC(N5CCC(n6nc(N7CCCc8cc(-c9cnn(C)c9)c(C(F)F)cc87)c7c6CCN(C(C)=O)C7)CC5)C4)cc3)C2(C)C)ccc1C#N` (stereo not shown) [Compound 294, 4-[2-[3-[4-[5-acetyl-3-[7-(difluoromethyl)-6-(1-methylpyrazol-4-yl)-3,4-dihydro-2H-quinolin-1-yl]-6,7-dihydro-4H-pyrazolo[4,3-c]pyridin-1-yl]-1-piperidyl]cyclobutyl]ethynyl]-N-[3-(4-cyano-3-methoxy-phenoxy)-2,2,4,4-tetramethyl-cyclobutyl]benzamide], for which the negative-log EC50 (pEC50) with AR / CBP ternary complex was over 9.00. In addition, the negative-log IC50 (pIC50) in the experiment with VCaP cells was 9.00 to 10.00.
The like results for `COc1cc(OC2C(C)(C)C(NC(=O)c3ccc(N4CCN(CC5CCC(n6nc(N7CCCc8cc(-c9cnn(C)c9)c(C(F)F)cc87)c7c6CCN(C(C)=O)C7)CC5)CC4)cc3)C2(C)C)ccc1C#N` (stereo not shown) [Compound 319, 4-[4-[[4-[5-acetyl-3-[7-(difluoromethyl)-6-(1-methylpyrazol-4-yl)-3,4-dihydro-2H-quinolin-1-yl]-6,7-dihydro-4H-pyrazolo[4,3-c]pyridin-1-yl]cyclohexyl]methyl]piperazin-1-yl]-N-[3-(4-cyano-3-methoxy-phenoxy)-2,2,4,4-tetramethyl-cyclobutyl]benzamide] were, in that order, over 9.00 and at least 10.00.
The like results for `COc1cc(OC2C(C)(C)C(NC(=O)c3ccc(N4CC[C@H](N5CCC(n6nc(N7CCCc8cc(-c9cnn(C)c9)c(C(F)F)cc87)c7c6CCN(C(C)=O)C7)CC5)C4)cc3)C2(C)C)ccc1C#N` (stereo partly drawn) [Compound 336, 4-[(3S)-3-[4-[5-acetyl-3-[7-(difluoromethyl)-6-(1-methylpyrazol-4-yl)-3,4-dihydro-2H-quinolin-1-yl]-6,7-dihydro-4H-pyrazolo[4,3-c]pyridin-1-yl]-1-piperidyl]pyrrolidin-1-yl]-N-[3-(4-cyano-3-methoxy-phenoxy)-2,2,4,4-tetramethyl-cyclobutyl]benzamide] were, in that order, over 9.00 and 7.00 to 9.00.

What is called pEC50 is the EC50 on a negative log10 scale, so that one unit is a factor of ten. Broadly, the pIC50 is −log10 of the IC50, conventionally taken in molar units. Read a low pIC50 as a large IC50.

For the origin of these results see patent US20250129070A1, “BIFUNCTIONAL ANDROGEN RECEPTOR COMPOUNDS” (priority 2023, published 2025).
